Experimental findings from publication PMC4894409 (Scientific Reports, 2015) are described below.

The target of one data set is T1, 5-HT1A receptor (Mus musculus, UniProt Q64264).
T1 construct: The hippocampi of mice were dissected and homogenized in 5 volumes of ice-cold buffer; from tissue; host or cells: mouse hippocampus membranes
T1 sequence (Q64264 1-421): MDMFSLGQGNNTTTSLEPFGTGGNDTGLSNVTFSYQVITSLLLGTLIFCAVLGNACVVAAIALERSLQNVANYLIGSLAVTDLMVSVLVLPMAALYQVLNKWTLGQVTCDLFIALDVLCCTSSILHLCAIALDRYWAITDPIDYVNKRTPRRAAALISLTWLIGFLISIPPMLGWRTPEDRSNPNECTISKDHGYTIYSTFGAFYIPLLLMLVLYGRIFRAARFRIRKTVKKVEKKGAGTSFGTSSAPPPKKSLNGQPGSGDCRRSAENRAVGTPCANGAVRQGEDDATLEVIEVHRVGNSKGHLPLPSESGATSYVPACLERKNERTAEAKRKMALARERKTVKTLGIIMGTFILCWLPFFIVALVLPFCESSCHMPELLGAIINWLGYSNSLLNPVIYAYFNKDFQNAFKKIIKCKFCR
As to the kind of experiment: [35S]GTPγS binding to mice hippocampal membranes. Type of data set: biochemical. As for the experimental part:
The hippocampi of mice were dissected and homogenized in 5 volumes of ice-cold buffer (25 mM Tris-HCl, 0.5 mM dithiothreitol, and 0.5 mM EGTA, pH 7.4). The homogenate was centrifuged (1,000 × g for 5 min at 4 °C) and the resultant supernatant was removed. The remaining pellet was resuspended in buffer, homogenized, and centrifuged. The two supernatants obtained were combined and centrifuged at […] at 4 °C and the pellets were resuspended in membrane preparation buffer. The volumes were adjusted prior to the determination of protein concentration by Bradford method[56] and stored at −80 °C until required. […] The reactions were initiated by the addition of 25 μl [^35S]-GTPγS, followed by a 20 min incubation at 20 °C. The reactions were terminated by rapid filtration. The filters were placed in liquid scintillation cocktail in counting vials. The liquid scintillation spectroscopy was used to measure the radioactivity bound to the filter paper after 10 hour.
(Binding of GTPγS marks nucleotide exchange on a G protein.)

Data set [1] has as its system mice. As to conditions: mouse, in vivo; for behavioural observation: male, Swiss. As for the experimental part: A modified method that was adopted by Malone[57] was used in the present study to evaluate general pharmacological alterations in mice following administration of D1. This test permits the observation of behavioural change, report of possible toxic effect or death occurrence in addition to variations in pharmacological responses to different route of drug administrations. Group of animals were subjected to s.c, i.p, or p.o route of D1 administrations at the doses of 2, 10, 50 or 250 mg/kg or vehicle 10 mL/kg and observed for 7 days.

The test system of data set [2] is mice. Kind of data set: Forced swimming (FS) test. Type of data set: in vivo, Male Swiss mice. Particulars: 5 or 10 mg/kg p.o., vs vehicle, p < 0.05. How it is done:
(§1) Male Swiss mice (weighing between 25–30 g; 6–8 weeks old), provided by Central Animal House of the Federal University of Goiás, were used in all behavioural models. The experimental animals were kept in an intra-laboratory facility cage (32 × 18 × 16 cm) under controlled environmental conditions (23 ± 1 °C, 12 hr light-dark cycle) with access to food and water ad libitum. The experimental protocols (number 104/08) were approved by Ethical Committee of Federal University of Goiás in accordance to the international laws on the care and use of laboratory animals.
In the FS model, mice were randomly divided into 5 groups [control (vehicle), 3 different doses of OAD and IMI]. Mice were exposed to a modified version of FS test[48] after oral administration of vehicle, OAD (5, 10 or 20 mg/kg) or IMI 15 mg/kg. FS apparatus is a cylindrical water container (42 cm in height, 18 cm in diameter) filled with water up to 30 cm (total volume ( [drawing 1] of 7635.06 cm^3 at 24 ± 2 °C). In this model, the initial escape-directed behaviour like swimming and climbing by mouse are generally followed with a relatively passive and immobile posture. The container was cleaned with 10% ethanol solution prior to the exposure of naïve mouse. This test session (6-min duration) was videotaped and the swimming and immobility time was later scored and analyzed.

For a further data set, the target named is T2, recombinant human MAO-B (Homo sapiens, UniProt P27338).
T2 construct: purchased BD Biosciences Bedford, MA, USA
T2 sequence (P27338 1-520): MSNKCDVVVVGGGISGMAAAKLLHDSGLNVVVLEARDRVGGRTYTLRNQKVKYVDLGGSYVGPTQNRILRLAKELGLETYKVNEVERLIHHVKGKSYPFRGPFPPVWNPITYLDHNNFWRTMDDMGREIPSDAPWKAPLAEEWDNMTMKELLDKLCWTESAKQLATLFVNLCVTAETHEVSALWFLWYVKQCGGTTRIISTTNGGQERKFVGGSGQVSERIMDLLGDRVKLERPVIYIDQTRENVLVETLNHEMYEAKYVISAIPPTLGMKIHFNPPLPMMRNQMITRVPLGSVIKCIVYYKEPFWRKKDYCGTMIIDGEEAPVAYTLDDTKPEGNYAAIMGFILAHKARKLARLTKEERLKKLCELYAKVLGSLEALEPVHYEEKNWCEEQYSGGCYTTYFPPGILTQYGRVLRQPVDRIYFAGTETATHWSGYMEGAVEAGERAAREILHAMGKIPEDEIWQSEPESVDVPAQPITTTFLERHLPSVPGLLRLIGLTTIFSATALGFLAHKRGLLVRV
As to the kind of experiment: Kynuramine deamination inhibition assay, MAO-B. The format is biochemical. As to conditions: 50 μM kynuramine, pH 7.4, 37 °C. As for the experimental part:
The assay was performed with the addition of inhibitor. Inhibition was calculated as percent of product formation compared to the corresponding control (enzyme-substrate reaction) without the inhibitors. The reactions were carried out in 0.1 M potassium phosphate buffer at pH 7.4. […] The compounds were dissolved in DMSO. The total reaction volume was 200 μL yielding a final DMSO concentration of 1.0% in the reaction mixture.

The test system of data set [3] is mice. As to the kind of experiment: Open field (OF) test. The format is in vivo, Male Swiss mice. As for the experimental part:
as §1
In the OF, animals were randomly divided into six groups [control (vehicle), 3 different doses of OAD, DZP 1 or 5 mg/kg]. Animals were treated with vehicle, OAD (5, 10 or 20 mg/kg, p.o), DZP (1 or 5 mg/kg, p.o) as described in our previous work[7][49], and placed in a circular open field [base area ( [drawing 2] ) = 62.80 cm^2 which is divided into 8 equal sectors enclosed in a 50 cm high wooden wall]. The test session (5-min duration) was videotaped in a sound-proof experimental room. Parameters like total crossing, freezing time, number of grooming and rearing activity, crossing at the centre and time spent at the centre of the open field were observed and scored.

Like-named read-outs stand apart in the source and are kept apart here. A value given as a limit tells only on which side of the number the result lay.

As a reminder, the Emax is the maximal effect, on the per cent scale that the assay sets. Usually IC50 stands for the concentration that inhibits the measured activity by half. For the compound `C=CC(=O)O[C@H]1CC[C@]2(C)[C@H]3CC=C4[C@@H]5CC(C)(C)CC[C@]5(C(=O)O)CC[C@@]4(C)[C@]3(C)CC[C@H]2C1(C)C` [D1, Oleanolic acid acrylate], on 5-HT1A receptor (mice hippocampal membranes, read-out: Agonist potency (pEC50 ± SEM) (converted)), the EC50 is 794 nM. Moreover, the Emax on 5-HT1A receptor (percentage of that produced by 10 μM (+)8-OH-DPAT, read-out: Intrinsic activity (Emax ± SEM in %)) amounted to 26 ± 2%. For the same compound, the behavioural observation result in the data set with mice [1] was “Total recovery from the effects of D1 without any sign of toxicity, weight gain or death occurence”; with mice [1] (50 mg/kg, 1 hr), “Effects after 30 min of administrations persisted”; in the data set on mice [1] (250 mg/kg, 1 hr), “Effects after 30 min of administrations persisted”. In addition, in the data set with mice [1] (250 mg/kg), the “behavioural observation (text)” value is “reduction in exploratory activity”. The “immobility time in the FS test” value with mice [2] was “reduction”. The “swimming time in the FS test” value in the data set on mice [2] is reported as “significant increase”. Also, the IC50 at recombinant human MAO-B is > 100000 nM. Also, the “crossing at the centre of the OF” value with mice [3] (10 mg/kg p.o., vs vehicle) is “increase”. For the same compound, the “freezing time in the OF” value with mice [3] (20 mg/kg p.o., vs vehicle) was “increase”. Besides, in the data set with mice [3] (5, 10, 20 mg/kg p.o., parameters not named as changed, p > 0.05), the “other parameters of the OF test” value is “not altered”. Moreover, the “time spent at the centre of the OF” value in the data set on mice [3] (10 and 20 mg/kg p.o., vs vehicle) is on record as “increase”.
